A compilation of properties of binary mixtures (doi:10.2298/jsc190413047v)

Assay: xn = mol fraction of the nth substance listed
Conditions: 100 kPa

CCCC[N+]1(C)CCCC1.O=S(=O)([N-]S(=O)(=O)C(F)(F)F)C(F)(F)F + O=C1CCCO1
Conditions	electrical conductivity [S/m]	viscosity [mPa·s]
298.15 K, x2 = 0	0.277	76.7
298.15 K, x2 = 0.1075	0.329	58.5
298.15 K, x2 = 0.2019	0.394	44.4
298.15 K, x2 = 0.3004	0.468	34.2
298.15 K, x2 = 0.3996	0.554	24.5
298.15 K, x2 = 0.5044	0.726	16.91
298.15 K, x2 = 0.5999	0.953	12.03
298.15 K, x2 = 0.7009	1.24	8.13
298.15 K, x2 = 0.7997	1.47	5.31
298.15 K, x2 = 0.8509	1.55	–
298.15 K, x2 = 0.9	1.46	3.32
298.15 K, x2 = 0.9498	1.12	–
303.15 K, x2 = 0	0.338	61.7
303.15 K, x2 = 0.1075	0.381	47.8
303.15 K, x2 = 0.3004	0.545	28.4
303.15 K, x2 = 0.3996	0.654	20.78
303.15 K, x2 = 0.5044	0.818	14.5
303.15 K, x2 = 0.5999	1.08	10.43
303.15 K, x2 = 0.7009	1.37	7.18
303.15 K, x2 = 0.7997	1.63	4.78
303.15 K, x2 = 0.8509	1.72	–
303.15 K, x2 = 0.9	1.59	3.04
303.15 K, x2 = 0.9498	1.22	–
308.15 K, x2 = 0	0.412	50.5
308.15 K, x2 = 0.2019	0.545	30.6
308.15 K, x2 = 0.3996	0.758	17.56
308.15 K, x2 = 0.5044	0.92	12.58
308.15 K, x2 = 0.5999	1.21	9.19
308.15 K, x2 = 0.7009	1.52	6.39
308.15 K, x2 = 0.7997	1.8	4.35
308.15 K, x2 = 0.8509	1.89	–
308.15 K, x2 = 0.9	1.72	2.79
313.15 K, x2 = 0	0.491	41.7
313.15 K, x2 = 0.1075	0.538	32.9
313.15 K, x2 = 0.2019	0.621	26.1
313.15 K, x2 = 0.3004	0.736	20.38
313.15 K, x2 = 0.3996	0.865	15.37
313.15 K, x2 = 0.5044	1.02	11.12
313.15 K, x2 = 0.5999	1.34	8.16
313.15 K, x2 = 0.7997	1.97	3.96
313.15 K, x2 = 0.8509	2.06	–
313.15 K, x2 = 0.9	1.85	2.57
318.15 K, x2 = 0	0.579	34.7
318.15 K, x2 = 0.1075	0.616	27.6
318.15 K, x2 = 0.3004	0.812	17.43
318.15 K, x2 = 0.3996	0.971	13.26
318.15 K, x2 = 0.5044	1.15	9.7
318.15 K, x2 = 0.5999	1.45	7.2
318.15 K, x2 = 0.7009	1.83	5.14
318.15 K, x2 = 0.7997	2.14	3.6
318.15 K, x2 = 0.9	1.99	2.38
323.15 K, x2 = 0	0.672	29.5
323.15 K, x2 = 0.1075	0.713	23.1
323.15 K, x2 = 0.2019	0.785	19.22
323.15 K, x2 = 0.3996	1.08	11.55
323.15 K, x2 = 0.5044	1.28	8.62
323.15 K, x2 = 0.7997	2.31	3.31
323.15 K, x2 = 0.8509	2.4	–
323.15 K, x2 = 0.9	2.12	2.21

CC[n+]1ccn(C)c1.O=S(=O)([N-]S(=O)(=O)C(F)(F)F)C(F)(F)F + O=C1CCCO1
electrical conductivity [S/m]
Conditions	293.15 K	298.15 K	303.15 K	308.15 K	313.15 K	318.15 K	323.15 K
x2 = 0	–	0.915	–	–	–	1.51	1.75
x2 = 0.1009	0.905	1.04	1.18	1.32	1.49	1.67	1.89
x2 = 0.2073	1.05	–	–	1.48	1.65	–	–
x2 = 0.3005	–	1.32	–	1.61	–	1.96	2.19
x2 = 0.3897	1.29	1.45	1.61	1.76	1.92	2.11	2.34
x2 = 0.5101	–	1.63	–	1.95	2.12	–	2.53
x2 = 0.6	1.6	1.76	1.93	2.09	2.25	2.45	–
x2 = 0.7	1.73	1.9	–	2.23	2.4	2.59	2.81
x2 = 0.7994	1.77	1.94	–	–	2.42	–	2.79
x2 = 0.8498	1.75	1.9	–	2.19	2.35	2.51	2.71
x2 = 0.9005	–	1.72	1.85	1.98	–	2.25	2.4
x2 = 0.95	–	1.22	–	1.4	1.5	–	1.7

CC[n+]1ccn(C)c1C.O=S(=O)([N-]S(=O)(=O)C(F)(F)F)C(F)(F)F + O=C1CCCO1
electrical conductivity [S/m]
Conditions	293.15 K	298.15 K	303.15 K	308.15 K	313.15 K	318.15 K	323.15 K
x2 = 0	0.309	–	0.468	0.567	0.67	0.783	–
x2 = 0.0999	0.383	0.472	0.574	0.684	0.805	0.938	–
x2 = 0.186	0.476	0.572	0.686	0.803	0.934	1.07	1.21
x2 = 0.3071	–	0.742	0.868	1.01	1.16	1.31	1.45
x2 = 0.4005	0.726	0.864	1.01	1.17	1.33	1.5	1.61
x2 = 0.4996	0.881	1.01	1.17	–	1.51	–	1.81
x2 = 0.5987	1.06	1.22	1.37	1.53	1.7	1.88	–
x2 = 0.6999	1.24	–	1.57	1.74	1.91	2.08	2.21
x2 = 0.7999	–	–	1.69	1.85	2.01	2.19	2.39
x2 = 0.8474	1.43	1.58	1.73	1.86	2.01	2.15	–
x2 = 0.8999	1.35	1.48	1.6	–	–	1.97	2.07
x2 = 0.9507	–	1	1.08	1.16	1.24	1.32	–

CCCCn1cc[n+](C)c1C.O=S(=O)([N-]S(=O)(=O)C(F)(F)F)C(F)(F)F + O=C1CCCO1
electrical conductivity [S/m]
Conditions	293.15 K	298.15 K	303.15 K	308.15 K	313.15 K	318.15 K	323.15 K
x2 = 0	0.178	0.23	0.289	0.351	0.426	–	–
x2 = 0.1014	–	0.262	0.325	0.398	–	0.569	0.669
x2 = 0.1987	0.246	0.301	0.367	0.442	0.525	0.619	0.739
x2 = 0.3	–	0.37	–	–	0.631	0.729	0.842
x2 = 0.4001	0.381	0.465	0.567	0.67	0.787	0.904	1.03
x2 = 0.4995	0.511	0.613	0.722	0.861	0.976	1.1	1.27
x2 = 0.5994	0.706	0.807	0.934	1.07	1.22	1.36	1.52
x2 = 0.7012	0.882	1.01	1.14	–	–	–	1.74
x2 = 0.8001	–	1.25	1.39	1.53	1.68	1.83	1.99
x2 = 0.8496	1.19	1.31	1.45	1.58	1.72	1.85	2
x2 = 0.8996	1.18	–	1.41	1.53	1.66	1.78	1.91
x2 = 0.9468	0.849	0.927	–	1.1	1.2	1.3	1.41
